Test [1] deals with Angptl4. Briefly: Sialylation of recombinant Angptl4 in Angptl4-HEK293 stable cell line incubated with ManNAc. It counts as cell-based, rat. As to conditions: ManNAc 25 mM, 48 hours. The method, then:
To study the effect of manNAc on the sialylation of recombinant protein, the Angptl4-HEK293 stable or pcDNA3.1-HEK293 control stable cell lines were grown to confluence in 15 cm dishes, washed twice with warm PBS, then incubated with serum free DMEM without phenol red with or without 25 mM manNAc for 48 hours, after which the media was harvested, concentrated, protein assay conducted, and loaded on the 2D gels (200 μg/gel). Western blots of glomeruli or recombinant protein were conducted using rabbit anti-Angptl4 (full length) antibody, preimmune rabbit serum and lectins SNA I-HRP and MAA-HRP (E-Y laboratories, San Mateo Calif. USA).

Test [2] relates to Angptl4. Briefly: 2D gel electrophoresis, Western blot and densitometry of glomerular Angptl4 from ManNAc fed NPHS2-Angptl4 TG rats. It counts as in vivo, rat. The text has this:
The following techniques are described in prior publications: Taqman real time PCR (26), confocal imaging (7), in situ hybridization (27), promoter—reporter studies (7), immunogold EM (26), glomerular extraction and processing for Western blot (26), assessment of charge by PEI method (28); the foregoing references are hereby incorproated by reference for such teachings. For alcian blue staining, the pH of the staining solution was adjusted to 2.5 using acetic acid, and 0.1% nuclear fast red solution was used as a counterstain. Densitometry of glomerular basement membrane alcian blue stain (20 glomeruli/rat, 3 rats/group) was assessed using Image-Pro software (Media Cybernetics, Inc., Bethesda Md., USA). Densitometry of 2D gel Western blots was assessed using Gel-Pro Analyzer software (Media Cybernetics, Inc.). For in situ hybridization, the digoxigenin labeled probe for rat Angptl4 included bp 1 to 548 of the ORF.
To study the effect of manNAc on the sialylation of recombinant protein, the Angptl4-HEK293 stable or pcDNA3.1-HEK293 control stable cell lines were grown to confluence in 15 cm dishes, washed twice with warm PBS, then incubated with serum free DMEM without phenol red with or without 25 mM manNAc for 48 hours, after which the media was harvested, concentrated, protein assay conducted, and loaded on the 2D gels (200 μg/gel). […]
To make the study affordable, 7 homozygous male NPHS2-Angptl4 rats, age 3-3.5 months, with 15-25 fold higher albuminuria than wild type rats, were given ManNAc 1 mg/ml of tap water for 12 days (ManNAc phase), after which three were euthanized and the others returned to plain tap water for another 24 days (washout phase). […] Another seven male NPHS2-Angptl4 rats of similar age were assessed for baseline albuminuria levels, given normal tap water (control group), three euthanized on Day 12 and others followed up to day 36, after which albuminuria was reassessed and the animals euthanized. […]
Background: Immunoblotting shows a protein as a band on a membrane.

A further test deals with NPHS2-Angptl4 TG rats. Kind of test: Albuminuria in NPHS2-Angptl4 TG rats given ManNAc in tap water. It counts as in vivo, rat. An excerpt: Transgenic rats were generated by microinjection of the digested DNA constructs into fertilized Sprague Dawley eggs (conducted at University of Michigan), implantation into pseudopregnant host Sprague Dawley females, and the resulting offsprings were genotyped by routine PCR and TaqMan genomic DNA real time PCR strategy using construct specific and control genomic prolactin primer and probe combinations. Two founder lines for podocyte specific expression were generated. Data from NPHS2-Angptl4 TG rat line 740 (5 copies of the transgene) and were stable over 4 generations, are presented. Urinary total protein was assessed using the Bradford method (Biorad laboratories, Hercules Calif. USA), and albuminuria by ELISA (Bethyl laboratories, Montgomery Tex. USA).
To make the study affordable, 7 homozygous male NPHS2-Angptl4 rats, age 3-3.5 months, with 15-25 fold higher albuminuria than wild type rats, were given ManNAc 1 mg/ml of tap water for 12 days (ManNAc phase), after which three were euthanized and the others returned to plain tap water for another 24 days (washout phase). 18 hour urine collections were done twice (Day- 12 and Day 0) before the study to confirm rising albuminuria, and periodically during the study. Another seven male NPHS2-Angptl4 rats of similar age were assessed for baseline albuminuria levels, given normal tap water (control group), three euthanized on Day 12 and others followed up to day 36, after which albuminuria was reassessed and the animals euthanized. Daily water intake of each rat was charted. At each euthanasia time point, kidneys were removed after perfusion, glomeruli isolated and processed for 2D gel electrophoresis. Albuminuria on Day 0 for each rats was denoted as 100% and all subsequent albuminuria values were expressed relative to Day 0.

Test [3] deals with rats with puromycin aminonucleoside nephrosis (PAN model). Briefly: Nephrotic syndrome parameters in puromycin aminonucleoside nephrosis (PAN model) rats treated with ManNAc. It counts as in vivo, rat. Particulars: ManNAc 80 mg/Kg body weight in tap water from Day 4, Day 6. The method, then:
FIGS. 7A-D show improvement in nephrotic syndrome parameters in ManNAc treated rats with puromycin aminonucleoside nephrosis (PAN model). In FIGS. 7A-7D, rats (n=5 rats/group) received a single intravenous injection of puromycin aminonucleoside (10 mg/100 gm), and were treated with ManNAC 80 mg/Kg body weight in tap water starting on Day 4, which coincides with the onset of proteinuria.
Rats (n=5 rats/group) received a single intravenous injection of puromycin aminonucleoside (10 mg/100 gm), and were treated with ManNAC 80 mg/Kg body weight in tap water starting on Day 4, which coincides with the onset of proteinuria. Data from Day 6 is shown.

For test [4], the system named is Zucker Diabetic Fatty rats. Briefly: Proteinuria in Zucker Diabetic Fatty rats treated with ManNAc. It counts as in vivo, rat. Particulars: 13 week old male rats, ManNAc in tap water, 70 mg/Kg up to 20 days and 140 mg/Kg, vs plain tap water. The protocol: 13 week old male Zucker Diabetic Fatty rats were treated with ManNAc in tap water or with plain tap water (n=4 rats/group) at 70 and 140 mg/Kg.
These high pI hyposialylated forms of Angptl4 are sensitive to sialic acid precursor therapy, including ManNAc and ManNAc derivatives. […] In FIG. 8C, 13 week old male Zucker diabetic fatty rats were treated with ManNAc in tap water or with plain tap water (n=4 rats/group).

A further test has as its system mouse Angptl4 promoter. Kind of test: Angptl4 promoter-reporter (SEAP) study in HEK 293 cells and GECs. It counts as cell-based. Particulars: mifepristone 2×10^−5 M, glucocorticoid receptor antagonist. The protocol:
We conducted 5′ RACE and primer extension analysis using mouse kidney mRNA and confirmed the same transcriptional start site in the kidney. Next, a 2 Kb fragment upstream of the transcriptional start site was clone using BAC clone RP23-27D5 as a template into pSEAP2 basic. A 2 Kb human Angptl4 promoter constructs were similarly generated using BAC clone RP11-886P16.
Incubation of HEK 293 cells and GECs transfected with Angptl4-pSEAP or empty vector promoter—reporter constructs for mouse Angptl4 with dexamethasone (10^−3 M) show a decline in SEAP activity at 48 hours. This decline in activity is mediated via the glucocorticoid receptor, since it is reversed by the receptor antagonist mifepristone (2×10^−5 M). Glucocorticoid sensitivity of the human promoter was also assessed (dexamethasone 10^−4 M). All transfection reactions were normalized using the pβgal vector (Clontech, Mountain View Calif. USA).

Molecules are shown by their SMILES. Entries after “also recorded” stand apart in the source; their conditions may differ.

From US10624914B2, “Methods for determining the level of hyposialylation of Angptl4” (priority 2010, dated 2020) come the findings set out here.

In the case of `CC(=O)N[C@@H]1C(O)O[C@H](CO)[C@@H](O)[C@@H]1O` (stereo partly drawn) [ManNAc, N-acetylmannosamine], in the test on Angptl4 [1], the “reactivity of Angptl4 to sialic acid binding lectin MAA” value is recorded as “increased reactivity” and the “sialylation of Angptl4” value is reported as “increased sialylation”. The “electrophoretic migration (pI) of secreted Angptl4” value in the test on Angptl4 [1] (serum free, concentrated supernatant) is “shift of the protein towards neutral pI; also recorded: shift from high pI forms”. Also, the “percentage of neutral pI forms of Angptl4 (effect in words)” value in the test on Angptl4 [2] (Day 12, ManNAc fed rats vs control TG rats) was “significant increase”. In addition, the “sialylation of glomerular Angptl4 (reactivity with lectin SNA I)” value in the test with Angptl4 [2] (Day 12, ManNAc treated rats) was “increased sialylation”. Besides, in the test on Angptl4 [2] (rats euthanized on Day 12, ManNAc 1 mg/ml), the “neutral pI Angptl4 fraction (densitometry of Western blots, glomerular Angptl4)” value is 72.9 ± 1.4%. In the test with NPHS2-Angptl4 TG rats (1 mg/ml ManNAc in tap water for 12 days, Day 0 = 100%), the “18 hour albuminuria, nadir on Day 12” value is reported as 59.4±3.3 % of baseline. Besides, the “albuminuria (effect in words)” value in the test with NPHS2-Angptl4 TG rats (ManNAc 1 mg/ml in tap water for 12 days) is on record as “reduced albuminuria; also recorded: significant reduction”. For the same compound, the “reduction in albuminuria compared to baseline” value in the test with NPHS2-Angptl4 TG rats (ManNAc 1 mg/ml in tap water, over a 12 day period) is “over 40%”. Also, in the test on NPHS2-Angptl4 TG rats (after 12 days of washout following 12 days ManNAc 1 mg/ml), the albuminuria after washout entry was “returned towards baseline values”. Besides, the “reduction in albuminuria maintained” value in the test with NPHS2-Angptl4 TG rats (pilot studies, heavily albuminuric NPHS2-Angptl4 rats, ManNAc 8 mg/ml tap water) is 20-30%. Further, the “albuminuria (effect in words)” value with NPHS2-Angptl4 TG rats (pilot studies, heavily albuminuric rats, increasing doses of ManNAc (1 to 8 mg/ml)) is on record as “reduced albuminuria”. Further, in test [3], the “hypercholesterolemia (cholesterol)” value is “significant reduction”, the “hypertriglyceridemia (triglycerides)” value is listed as “significant reduction” and the plasma albumin levels entry is “significant improvement”. The proteinuria result in test [3] (vs control PAN rats) was “significant reduction”. Further, the proteinuria result in test [4] is on record as “Significant reduction”.

For `CC#C[C@]1(O)CC[C@H]2[C@@H]3CCC4=CC(=O)CCC4=C3[C@@H](c3ccc(N(C)C)cc3)C[C@@]21C` [mifepristone], the “dexamethasone-induced decline in SEAP activity” value in the test on mouse Angptl4 promoter is given as “reversed”.
